Laboratory results taken from patent US6046228A, “Anti-viral pharmaceutical compositions containing saturated 1,2-dithiaheterocyclic compounds and uses thereof” (priority 1999, dated 2000).

Key:
[1] = test system: attachment of HIV-1 to fresh human PBLs; assay: virus attachment assay, HIV-1RF to PBLs (p24-based); type: cell-based
Procedure: Binding of HIV-1RF to PBLs was measured by a p24-based assay (Rice, et al., Proc. Nat'l. Academy of Science USA 90: 9721-9724, (1993)). Briefly, 5×10^5 PBLs were incubated with a concentrated stock of virus for 30 min. at 37° C. in the absence or presence of various concentrations of 624151, the unbound virus was washed away, and the cell-associated virus was solubilized in 1% Triton X-100, 1% BSA and analyzed by the p24 antigen capture assay as previously described. The binding of gp120to CD4 was analyzed using an antigen capture ELISA. All steps of the assay were carried out according to the manufacturer's protocols.
^.dagger. Attachment of HIV1 to fresh human PBLs, binding of gp120 to […]

HIV-1 Ba-L = assay: antiviral assay in Mo/M.PHI. (p24), Ba-L; type: cell-based; conditions: Human immunodeficiency virus 1, BAL, cell-free p24
Procedure: (§1) Initial anti-HIV screening was performed with CEM-SS cells and HIV-1RFusing the XTT cytoprotection assay as previously described (Weislow et al., J. National Cancer Inst. 81: 577-586, (1989)). HIV-1 isolates included common laboratory stains (RF, IIIB and MN), as well as a panel of HIV-1 clinical isolates (Cushman et al., J. Med. Chem. 37: 3040-3050, (1994)). The pyridone-resistant HIV-1A17 isolate (Nunberg et al., J. Virol., 65: 4887-4892 (1991)) was obtained from Emilio Emini at Merck Sharpe and Dohme Laboratories. Phytohemagglutinin-stimulated human peripheral blood lymphocytes (PBLs) and fresh monocyte-macrophage (Mono/MF) cultures were prepared and utilized in antiviral assays as previously described (Rice et al., Proc. Nat'l. Academy Science, USA 90: 9721-9724, (1993)); (Cushman et al., J. Med. Chem. 37: 3040-3050, (1994)). EC50 values for these cultures indicate the drug concentration that provided a 50% reduction in viral p24 production. […] The compounds can be synthesized according to the teachings of Singh et al., Sulfur Letters 8: 107-114, (1988). The 4,5-cis-dihydroxy(1,1-dioxy-1,2,-dithiohexane) compound (NSC 624151) has been abbreviated as 624151 for convenience. […]

HIV-1 VIHU(NSI) = assay: antiviral assay in PBL (p24), clinical isolate VIHU; type: cell-based; conditions: Human immunodeficiency virus 1, cell-free p24
Procedure: as §1

SIV = assay: XTT cytopathicity assay, other retroviruses; type: cell-based; conditions: Simian immunodeficiency virus
HIV-1 BAKI(SI) = assay: antiviral assay in PBL (p24), clinical isolate BAKI; type: cell-based; conditions: Human immunodeficiency virus 1, cell-free p24
Procedure: as §1

HIV-1IIIB = assay: XTT cytopathicity assay, HIV-1IIIB; type: cell-based
Procedure: Initial anti-HIV screening was performed with CEM-SS cells and HIV-1RFusing the XTT cytoprotection assay as previously described (Weislow et al., J. National Cancer Inst. 81: 577-586, (1989)). HIV-1 isolates included common laboratory stains (RF, IIIB and MN), as well as a panel of HIV-1 clinical isolates (Cushman et al., J. Med. Chem. 37: 3040-3050, (1994)). The pyridone-resistant HIV-1A17 isolate (Nunberg et al., J. Virol., 65: 4887-4892 (1991)) was obtained from Emilio Emini at Merck Sharpe and Dohme Laboratories. Phytohemagglutinin-stimulated human peripheral blood lymphocytes (PBLs) and fresh monocyte-macrophage (Mono/MF) cultures were prepared and utilized in antiviral assays as previously described (Rice et al., Proc. Nat'l. Academy Science, USA 90: 9721-9724, (1993)); (Cushman et al., J. Med. Chem. 37: 3040-3050, (1994)). EC50 values for these cultures indicate the drug concentration that provided a 50% reduction in viral p24 production. […] The compounds can be synthesized according to the teachings of Singh et al., Sulfur Letters 8: 107-114, (1988). The 4,5-cis-dihydroxy(1,1-dioxy-1,2,-dithiohexane) compound (NSC 624151) has been abbreviated as 624151 for convenience. MT-2, MT-4, U1, HeLa-CD4-LTR-β-gal and 174xCEM cells were obtained from the AIDS Research and Reference Program (National Institute of Allergy and Infectious Disease, National Institutes of Health, Bethesda, Md. USA), as were the HIV-2MS and the AZT-resistant HIV-1G910-6 isolates.
^a Anti-HIV studies utilizing lymphocytederived cell lines were
performed using the XTT cytopathicity assay, while antiviral assays

HIV-1NL4-3 = assay: XTT cytopathicity assay, NL4-3 without RT mutation; type: cell-based; conditions: Human immunodeficiency virus 1, NL43; MT-2, NL4-3, RT mutation None
Procedure: as §1

HIV-1 SK1 = assay: XTT cytopathicity assay, SK1; type: cell-based; conditions: Human immunodeficiency virus 1, CEM-SS
Procedure: as §1

HIV-1 p66-p51 RT = target: T1, HIV-1 p66-p51 RT (Human immunodeficiency virus type 1 group M subtype B, UniProt P04585); assay: reverse transcriptase activity assay; type: biochemical; conditions: for inhibition of HIV-1 RT: in words
T1 construct: the purified HIV-1 p66-p51 RT enzyme
Procedure: The effects of 624151 on the in vitro activity of purified RT was determined by measurement of incorporation of [^3 H]TTP onto the poly(rA):oligo(dT)(rAdT) or poly(rC):oligo(dG)(rCdG) homopolymer template/primer systems. Samples (5 μL) were blotted onto DE81 paper, washed with 5% dibasic sodium phosphate as previously described (Buckheit et al., Antiviral Res. 21:247, (1993)), and then quantitated on a Packard Matrix 9600 dual beam counter. 3'-Azido-3'-deoxythymidine-5 '-triphosphateand UC38 (NSC 629243) served as positive controls for inhibition of RT. HIV-1 protease activity was quantitated by a reversed phase HPLC assay utilizing the […]Amide substrate (Multiple Peptide Systems, San Diego, Calif.) as previously described in Rice et al. (Proc. Nat'l. Academy of Science USA 9: 9721-9724, (1993)).

O=S1(=O)C[C@H](O)[C@H](O)CS1 (relative stereo) [NSC 624151, cis-1,1-dioxo[1,2]dithiane-4,5-diol]
Attachment ([1]; Table 6): NI100μμ
inhibition of attachment of HIV-1 virions to target cells ([1]; in words): did not inhibit
EC50 (HIV-1 Ba-L): 6.2 µM
EC50 (HIV-1 VIHU(NSI)): 12 µM
EC50 (SIV): 22 µM
EC50 (HIV-1 BAKI(SI)): 19 µM
EC50 (HIV-1IIIB; Human immunodeficiency virus 1, AA5(B, EBV+), HIV-1IIIB): 2.6e-05 M
EC50 (HIV-1IIIB; Human immunodeficiency virus 1, CEM-SS, CEM-SS (T), HIV-1IIIB, cell type panel): 6.1e-06 M
EC50 (HIV-1IIIB; Human immunodeficiency virus 1, H9(T), HIV-1IIIB): 1.3e-05 M
EC50 (HIV-1IIIB; Human immunodeficiency virus 1, MT-2(T), HIV-1IIIB): 1.88e-05 M
EC50 (HIV-1IIIB; Human immunodeficiency virus 1, U-937, U937(M), HIV-1IIIB): 3.2e-06 M
EC50 (HIV-1IIIB; Human immunodeficiency virus 1, CEM-SS, IIIB, Laboratory HIV-1): 2.08e-05 M
inhibition of infection by HIV-1IIIB in all cellular phenotypes tested (HIV-1IIIB; in words): inhibited by 624151 in all cellular phenotypes tested
EC50 (HIV-1NL4-3): 16.6 µM
EC50 (HIV-1 SK1): 22.7 µM
inhibition of HIV-1 RT (HIV-1 p66-p51 RT; rAdT template/primer): not inhibited
IC50 (HIV-1 p66-p51 RT; rAdT, read-out: RT Activity rAdT ID50): > 100 µM
inhibition of HIV-1 RT (HIV-1 p66-p51 RT; rCdG template/primer): not inhibited
